From ChEMBL document CHEMBL1201862, “PubChem BioAssay data set” (2004)
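The compound was tested at five concentrations on cells cultured in 96-well plates, with a 48-hour exposure period. GI50 marks 50% less growth.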 Activity calls are given as the source filed them. Rule as the data show it: active = GI50 up to about 1.1 µM and inactive = higher.

Columns and labels:
Assay in all cases: inhibition of tumour cell growth, NCI panel, 48 h
UACC-257 = tested on: UACC-257
IGROV-1 = tested on: IGROV-1
SN12C = tested on: SN12C
MOLT-4 = tested on: MOLT-4
RPMI-8226 = tested on: RPMI-8226
A498 = tested on: A498
UACC-62 = tested on: UACC-62
HT-29 = tested on: HT-29
PC-3 = tested on: PC-3
OVCAR-5 = tested on: OVCAR-5
MCF7 = tested on: MCF7
UO-31 = tested on: UO-31
Malme-3M = tested on: Malme-3M
NCI/ADR-RES = tested on: NCI/ADR-RES
COLO 205 = tested on: COLO 205
K562 = tested on: K562
EKVX = tested on: EKVX
CCRF-CEM = tested on: CCRF-CEM
NCI-H23 = tested on: NCI-H23

| Structure (SMILES) | GI50 (UACC-257) | GI50 (IGROV-1) | GI50 (SN12C) | GI50 (MOLT-4) | GI50 (RPMI-8226) | GI50 (A498) | GI50 (UACC-62) | GI50 (HT-29) | GI50 (PC-3) | GI50 (OVCAR-5) | GI50 (MCF7) | GI50 (UO-31) | GI50 (Malme-3M) | GI50 (NCI/ADR-RES) | GI50 (COLO 205) | GI50 (K562) | GI50 (EKVX) | GI50 (CCRF-CEM) | GI50 (NCI-H23) |
| --- | --- | --- | --- | --- | --- | --- | --- | --- | --- | --- | --- | --- | --- | --- | --- | --- | --- | --- | --- |
| CCOn1c(C2(CC3CCN(C(=O)c4ccccc4)CC3)OCCO2)cc2ccccc21 | 11.1 µM (inactive) | 15 µM (inactive) | 17.2 µM (inactive) | 12.8 µM (inactive) | 8.51 µM (inactive) | 12.9 µM (inactive) | 11 µM (inactive) | 18.9 µM (inactive) | 12.6 µM (inactive) | 19 µM (inactive) | 14.8 µM (inactive) | 14 µM (inactive) | 18.2 µM (inactive) | 16.9 µM (inactive) | 16.4 µM (inactive) | 11.4 µM (inactive) | 20.8 µM (inactive) | 12.6 µM (inactive) | 19.5 µM (inactive) |
| O=c1c2ccc(Cl)cc2oc2c(CNc3ccc(S(=O)(=O)Nc4ncccn4)cc3)cccc12 | > 100 µM (inactive) | > 100 µM (inactive) | > 100 µM (inactive) | > 100 µM (inactive) | > 100 µM (inactive) | > 100 µM (inactive) | > 100 µM (inactive) | > 100 µM (inactive) | > 100 µM (inactive) | > 100 µM (inactive) | > 100 µM (inactive) | > 100 µM (inactive) | > 100 µM (inactive) | > 100 µM (inactive) | > 100 µM (inactive) | > 100 µM (inactive) | > 100 µM (inactive) | > 100 µM (inactive) | > 100 µM (inactive) |
| CC(=O)N1N=C(c2c(O)ccc3ccccc23)CC1C(=O)c1ccco1 (stereo not drawn) | 31.6 µM (inactive) | 27.1 µM (inactive) | 32.4 µM (inactive) | 13.2 µM (inactive) | 14 µM (inactive) | 41.5 µM (inactive) | 16.4 µM (inactive) | 33.8 µM (inactive) | 23 µM (inactive) | 55 µM (inactive) | 14.5 µM (inactive) | 21.6 µM (inactive) | 30.5 µM (inactive) | 28.2 µM (inactive) | 24.7 µM (inactive) | 16.9 µM (inactive) |  | 14.9 µM (inactive) | 22.2 µM (inactive) |
| CCOC(=O)c1nc2ccccc2nc1Oc1cc(OC)c(OC)c(OC)c1 | > 100 µM (inactive) | > 100 µM (inactive) | > 100 µM (inactive) | > 100 µM (inactive) | > 100 µM (inactive) | > 100 µM (inactive) | > 100 µM (inactive) | > 100 µM (inactive) | > 100 µM (inactive) | > 100 µM (inactive) | > 100 µM (inactive) | > 100 µM (inactive) | > 100 µM (inactive) | > 100 µM (inactive) | > 100 µM (inactive) |  | > 100 µM (inactive) | > 100 µM (inactive) | 87.3 µM (inactive) |
| O=C1C(c2cnc3ccccc3n2)=C(O)c2ccccc21 | > 71 µM (inactive) | > 83 µM (inactive) | > 77.3 µM (inactive) | > 70.5 µM (inactive) | > 61.1 µM (inactive) | > 100 µM (inactive) | > 100 µM (inactive) | > 74.1 µM (inactive) | > 46.6 µM (inactive) | > 70.1 µM (inactive) | 10.3 µM (inactive) | > 100 µM (inactive) | > 100 µM (inactive) | > 100 µM (inactive) | 43.2 µM (inactive) | > 86.9 µM (inactive) | 19.1 µM (inactive) | > 100 µM (inactive) | > 100 µM (inactive) |
| CCN(CC)CCN1C(=O)c2c(c(-c3ccccc3)c3ccccc3c2-c2ccccc2)C1=O | > 100 µM (inactive) | > 100 µM (inactive) | > 100 µM (inactive) | > 100 µM (inactive) | > 100 µM (inactive) | > 100 µM (inactive) | > 100 µM (inactive) | > 100 µM (inactive) | > 100 µM (inactive) | > 100 µM (inactive) | > 100 µM (inactive) |  | > 100 µM (inactive) | > 100 µM (inactive) | > 100 µM (inactive) | > 100 µM (inactive) | > 100 µM (inactive) | > 100 µM (inactive) |  |
| O=S(=O)(O)c1ccc(-c2nnc(-c3ccccn3)nc2-c2ccc(S(=O)(=O)O)o2)o1 |  | > 100 µM (inactive) | > 100 µM (inactive) | > 100 µM (inactive) | > 100 µM (inactive) | > 100 µM (inactive) | > 100 µM (inactive) | > 100 µM (inactive) | > 100 µM (inactive) | > 100 µM (inactive) | > 100 µM (inactive) | > 100 µM (inactive) | > 100 µM (inactive) | > 100 µM (inactive) | > 100 µM (inactive) | > 100 µM (inactive) | > 100 µM (inactive) |  | > 100 µM (inactive) |
| CC(C)CC1c2[nH]c3ccccc3c2C[C@H]2C(=O)NC(CCCCNC(=O)OC(C)(C)C)C(=O)N12 (stereo partly drawn) | 44.8 µM (inactive) | 37.1 µM (inactive) | 33.9 µM (inactive) | 11.8 µM (inactive) | 18.7 µM (inactive) | 35.4 µM (inactive) | 27 µM (inactive) | 23.5 µM (inactive) | 17.9 µM (inactive) | 61.5 µM (inactive) | 34.3 µM (inactive) | 38.1 µM (inactive) | 31.6 µM (inactive) | 33.4 µM (inactive) | 27.7 µM (inactive) | 32 µM (inactive) | 51.9 µM (inactive) |  | 33 µM (inactive) |
| Oc1nnc(-c2ccc(F)cc2)cc1-c1ccccc1 | > 100 µM (inactive) | 72.8 µM (inactive) | > 100 µM (inactive) | > 100 µM (inactive) | 75 µM (inactive) | 64.4 µM (inactive) | 76.2 µM (inactive) | > 100 µM (inactive) | 91.4 µM (inactive) | > 100 µM (inactive) | 71.4 µM (inactive) |  | 97.5 µM (inactive) | > 100 µM (inactive) | > 100 µM (inactive) | > 100 µM (inactive) | 42.9 µM (inactive) | > 100 µM (inactive) | > 100 µM (inactive) |
| CC1=NN(c2nc(N)nc(COCc3nc(N)nc(N4N=C(C)CC4(C)C)n3)n2)C(C)(C)C1 | > 100 µM (inactive) | > 100 µM (inactive) | > 100 µM (inactive) | > 100 µM (inactive) | > 100 µM (inactive) | > 100 µM (inactive) | > 100 µM (inactive) | > 100 µM (inactive) | > 100 µM (inactive) | > 100 µM (inactive) | > 100 µM (inactive) | > 100 µM (inactive) |  | > 100 µM (inactive) | > 100 µM (inactive) | > 100 µM (inactive) | > 100 µM (inactive) | > 100 µM (inactive) | > 100 µM (inactive) |
| Cc1cc(S(=O)(=O)N/C(=C(\C#N)C(=O)c2ccc(Cl)cc2)[n+]2ccc(N(C)C)cc2)c([S-])cc1Cl | < 0.01 µM (active) | > 100 µM (inactive) | > 100 µM (inactive) | > 100 µM (inactive) | 45.2 µM (inactive) | 12.3 µM (inactive) | > 100 µM (inactive) | 30.1 µM (inactive) | 36.6 µM (inactive) | 66.5 µM (inactive) | 71.3 µM (inactive) | > 100 µM (inactive) | 0.836 µM (active) | 73.3 µM (inactive) | > 100 µM (inactive) | 53.2 µM (inactive) |  | 64 µM (inactive) |  |
| COc1ccc(C2SCC(=O)N2c2ccc(-n3c(-c4ccccc4)nc4ccccc4c3=O)cc2)cc1 (stereo not drawn) | > 100 µM (inactive) | > 100 µM (inactive) | > 100 µM (inactive) | 24.6 µM (inactive) | > 100 µM (inactive) | > 100 µM (inactive) | 17.8 µM (inactive) | > 100 µM (inactive) | 42.1 µM (inactive) | > 100 µM (inactive) | 98.4 µM (inactive) | 25.3 µM (inactive) |  | 8.89 µM (inactive) | > 100 µM (inactive) | > 100 µM (inactive) | > 100 µM (inactive) | > 100 µM (inactive) | > 100 µM (inactive) |
| CC(NC(=O)c1ccc(Cl)c(Cl)c1)c1ccc(-c2ccccc2)cc1 (stereo not drawn) | 76.2 µM (inactive) | 32.8 µM (inactive) | 52.2 µM (inactive) |  | 39.4 µM (inactive) | 28.9 µM (inactive) | 31.6 µM (inactive) | 71.6 µM (inactive) | 28.2 µM (inactive) | 44.9 µM (inactive) | 78 µM (inactive) | 14.2 µM (inactive) | 21.5 µM (inactive) | 54.8 µM (inactive) | > 100 µM (inactive) | > 100 µM (inactive) | 35 µM (inactive) |  | 48.3 µM (inactive) |
| C1=Nc2sc3c(c2C2=NCCN12)CCCC3 | 16.3 µM (inactive) | 15.4 µM (inactive) |  | 13.8 µM (inactive) | 20.8 µM (inactive) | 20.6 µM (inactive) | 15.4 µM (inactive) | 18.1 µM (inactive) | 16.7 µM (inactive) | 18.2 µM (inactive) | 18.3 µM (inactive) | 16.3 µM (inactive) | 16.9 µM (inactive) | 18.2 µM (inactive) | 23.3 µM (inactive) | 22.4 µM (inactive) | 15.6 µM (inactive) |  | 15.6 µM (inactive) |
| CC(=O)OC1(C)N=NC2(CCCCC2)O1 (stereo not drawn) | > 100 µM (inactive) | > 100 µM (inactive) | > 100 µM (inactive) | > 100 µM (inactive) | > 100 µM (inactive) | > 100 µM (inactive) | > 100 µM (inactive) | > 100 µM (inactive) | > 100 µM (inactive) | > 100 µM (inactive) | > 100 µM (inactive) |  | > 100 µM (inactive) | > 100 µM (inactive) | > 100 µM (inactive) | > 100 µM (inactive) | > 100 µM (inactive) | > 100 µM (inactive) | > 100 µM (inactive) |
